The nature of data set [1]: Karl-Fisher (KF) water determination of isolated solid. The data set is classed as physicochemical. The note with it: for KF (water content determined by Karl Fischer water determination method): OXY133 sample, method/solvent system, processing point, temperature and time as in the table row; for KF (Wt %) water content of isolated solid: solid isolated from acetone/water slurry at 0, 10 or 25° C. The text has this:
Further, Table 8 below is a list of OXY133 polymorphs Forms A, B, C, D, E, F, G, H and I identified by a high performance liquid chromatography (HPLC) followed by charged aerosol detector (CAD) method. Table 4 also lists the starting products, the solvent system including solvent and anti-solvent, the temperature at which a polymorph was formed, the water content of the polymorph as determined by the Karl-Fisher (KF) method of water determination, and where available the yield and purity of the resulting polymorph.

Data set [2] can be described thus: X-ray powder diffraction (XRPD) identification of the crystal form. The data set is classed as physicochemical. The note with it: OXY133 sample, method/solvent system. The source says:
The many crystalline forms obtained by subjecting a slurry of OXY133 to different conditions of re-slurrying, recrystallizing from different solvent systems at different temperatures may be identified by many analytical methods, for example, XRPD, HPLC-CAD, DSC-TGA and others known in the art. In certain embodiments, the OXY133 polymorphs may be characterized, at least in part, by X-ray Powder Diffraction (XRPD). In particular, crystalline solids produce a distinctive diffraction pattern of peaks, represented in what is referred to as a diffractogram. The peak assignments for a given crystalline material, for example, degree 2θ values, may vary slightly, depending on the instrumentation used to obtain the diffractogram and certain other factors, for example, sample preparation. Nevertheless, these variations should not be more than +/−0.2 degrees 2θ and the relative spacing between the peaks in the diffractogram will always be the same, regardless of the instrumentation used or the method of sample preparation, and the like.
The equipment utilized to collect the XRPD patterns depicted in FIGS. 2A-13B was a Bruker D8 Advance diffractometer using Cu radiation (40 kV, 25 mA) with a divergence slit of 0.3° (0.6 mm), wherein variable slits must be operated in fixed mode. The axial Soller slits, primary and secondary were each set at 2.5°. The anti-scatter slit was set at 0.3° (0.6 mm). The secondary monochromator anti-scatter slit was set at 1 mm and the detector slit at 0.1 mm. If a secondary monochromator is not used, then a suitable […] must be used, namely a Ni filter for Cu radiation. The linear detector LYNXEYE was set at 30 detector opening with the angle scanned from 2 to 45° 2Θ.

For data set [3] the following is noted: for stability in the acetone/water solvent system: acetone/water slurry.
The nature of data set [4]: Solubility of OXY133 Form B in organic solvents. Particulars: ambient temperature of about 20° C.
A further data set can be described thus: physchem. The note with it: acetone, organic solvent or mixture, thermodynamic from solid.
Data set [5] in a line: Stability of the crystal form on drying in a vacuum oven. The note with it: drying at temperatures above about 20° C. to about 30° C. The data set is classed as physicochemical. On the procedure:
2.0 g anhydrous OXY133 was added to 10 mL isopropanol in a 100 mL polyblock reactor. The mixture was heated to 30° C. and then stirred at 30° C. for 45 minutes until the solids were dissolved completely. Acceptable heating temperatures ranged from 25° C. to 35° C. A polish filtration step can be added after dissolving the anhydrous OXY133. The mixture of anhydrous OXY133 and isopropanol was then cooled to 5° C. 20 mL of water was then added to the cooled mixture over 120 minutes at 5° C., resulting in the formation of a precipitate approximately one third of the way through the addition of water. The water addition can also be done in temperature ranges from about 0° C. to about 20° C. with no significant effect on the crystal structure. The resulting mixture of OXY133, isopropanol and water was then stirred at 5° C. for 18 hours. However, it is recommended that the resulting mixture could be mixed for at least 2 hours at 5° C. after the water addition was complete to ensure that all solids were precipitated from the solution. A white solid was collected by rapidly filtering the mixture and then washing the solid with 2.0 mL of an isopropanol:water mixture in a ratio of 1:2 v/v. The filtered and washed solids were then dried in a vacuum oven at 20′C. Acceptable temperatures for drying can range from about 20° C. to about 30′C.

Data set [6] in a line: DSC/TGA (differential scanning calorimetry and thermo-gravimetric analysis). Format: physicochemical. The note with it: isolated solid of Example 6. As to the method:
Differential scanning calorimetry (DSC) and thermo-gravimetric analysis (TGA) were also collected for some of the OXY133 polymorphs. The equipment utilized to collect the DSC/TGA data was a Mettler Toledo DSC 2 equipped with an aluminum 40 μL crimped pan with a pin hole and the ramp rate was 10° C./min. DSC/TGA thermograms identifying several OXY133 polymorphs are illustrated in FIGS. 20-25.

Setting [7] is: Table 8, processing point (slurry/solid/after drying), temperature and time as in the table row.
[8] abbreviates: Table 9, processing point, temperature.

Here are results for seven compounds from patent US20170275330A1, “POLYMORPHIC FORMS OF AN OXYSTEROL AND METHODS OF MAKING THEM” (Warsaw Orthopedic, Inc., priority 2016, published 2017).

Converted amounts (≈) assume the structure as drawn.

In the case of `CCCCCC[C@](C)(O)[C@H]1CC[C@H]2[C@@H]3C[C@H](O)[C@H]4C[C@@H](O)CC[C@]4(C)[C@H]3CC[C@@]21C` [Form 2891-8-3], in data set [1], the KF (water content determined by Karl Fischer water determination method) was 3.25% and the “KF (Wt %) water content of isolated solid” value (from here on “KF (Wt %) water content”) amounted to 3.25 Wt %. In addition, the “Crystal Form (XRPD)” value in data set [2] (setting [7]) is given as “Form A”. The “Crystal Form (XRPD)” value in data set [2] (setting [8]) was “Form A”.

In the case of `CCCCCC[C@](C)(O)[C@H]1CC[C@H]2[C@@H]3C[C@H](O)[C@H]4C[C@@H](O)CC[C@]4(C)[C@H]3CC[C@@]21C` [Form 2891-9-3], in data set [1], the KF (water content determined by Karl Fischer water determination method) stood at 3.83% and the “KF (Wt %) water content” value turned out to be 3.83 Wt %. For the same compound, in data set [2] (setting [7]), the “Crystal Form (XRPD)” value is given as “Form A”. Further, the “Crystal Form (XRPD)” value in data set [2] (setting [8]) is “Form A”.

Take `CCCCCC[C@](C)(O)[C@H]1CC[C@H]2[C@@H]3C[C@H](O)[C@H]4C[C@@H](O)CC[C@]4(C)[C@H]3CC[C@@]21C` [Form F]: in data set [3], the “stability in the acetone/water solvent system” value is “somewhat stable”. In addition, the “conversion to any other polymorph forms” value in data set [3] (acetone/water system, stirred at about 20° C. or about 5° C.) is “would not convert”.

For `CCCCCC[C@](C)(O)[C@H]1CC[C@H]2[C@@H]3C[C@H](O)[C@H]4C[C@@H](O)CC[C@]4(C)[C@H]3CC[C@@]21C` [Form B], in data set [4] (isopropanol), the “solubility in isopropanol (IPA)” value was “good”. Further, the solubility in tetrahydrofuran result in data set [4] (tetrahydrofuran) is given as “good”. Also, the solubility in the data set “physchem” (20 °C) was approximately 10 mg/mL (≈ 23.8 mM); in “physchem” (56 °C) it was approximately 80 mg/mL (≈ 190 mM).

In the case of `CCCCCC[C@](C)(O)[C@H]1CC[C@H]2[C@@H]3C[C@H](O)[C@H]4C[C@@H](O)CC[C@]4(C)[C@H]3CC[C@@]21C.O` [OXY133 Monohydrate, (3S,5S,6S,8R,9S,10R,13S,14S,17S)-17-((S)-2-hydroxyoctan-2-yl)-10,13-dimethylhexadecahydro-1H-cyclopenta[a]phenanthrene-3,6-diol, monohydrate], in data set [1] (isolated solid of Example 6 (IPA/water 1:2, 5° C., dried at 20° C.)), the KF water content is 4.07%. For the same compound, the “crystal form stability on drying” value in data set [5] is “slow conversion”. This compound displayed a DSC/TGA in data set [6] of 4.76%.

Turning to `CCCCCC[C@](C)(O)[C@H]1CC[C@H]2[C@@H]3C[C@H](O)[C@H]4C[C@@H](O)CC[C@]4(C)[C@H]3CC[C@@]21C` [Form 2891-10-3], in data set [1], the KF (water content determined by Karl Fischer water determination method) amounted to 4.02% and the “KF (Wt %) water content” value was found to be 4.02 Wt %. For the same compound, in data set [2] (setting [7]), the “Crystal Form (XRPD)” value is reported as “Form A”. Moreover, the “Crystal Form (XRPD)” value in data set [2] (setting [8]) is recorded as “Form A”.

In the case of `CCCCCC[C@](C)(O)[C@H]1CC[C@H]2[C@@H]3C[C@H](O)[C@H]4C[C@@H](O)CC[C@]4(C)[C@H]3CC[C@@]21C` [Form C], in data set [3], the “stability in the acetone/water solvent system” value is “fairly stable”. The “conversion from Form C to Form A or Form B” value in data set [3] (slurry stirred at about 20° C. in acetone/water) is “no conversion”.
